In patent publication US20160219881A1, “HERBICIDALLY ACTIVE 2-HALOGEN-4-ALKYNYL-PHENYL-PYRAZOLIDINE-DIONE OR PYRROLIDINE-DIONE DERIVATIVES” (SYNGENTA LIMITED, priority 2013, published 2016):

Tests used:
Type in all cases: in vivo
[1] = tested on: Abutilon theophasti Medik. (ABUTH); test: Test 1A glasshouse assay, post-emergence herbicidal activity; details: 312 h, 13 days after application, read-out: Post-Emergence Herbicidal Activity (% Phytotoxicity) ABUTH
Method: (§1) Seeds of a variety of test species are sown in standard soil (usually sandy soil) in pots. After cultivation for one day (pre-emergence) or after 8 days cultivation (post-emergence) under controlled conditions in a glasshouse (at 24/16° C., day/night; 14 hours light; 65% humidity), the plants are sprayed with an aqueous spray solution derived from the formulation of the technical active ingredient (compound) in acetone/water (50:50) solution containing 0.5% Tween 20 (polyoxyethylene sorbitan monolaurate, CAS RN 9005-64-5). The test plants are then grown under controlled conditions in a glasshouse (at 24/16° C., day/night; 14 hours light; 65% humidity) and watered twice daily. 13 days after application of the test compounds, for pre- and post-emergence, the test is evaluated visually for percentage phytotoxicity to each plant (where 100%=total damage to plant; 0%=no damage to plant).
(§2) Alopecurus myosuroides (ALOMY), Setaria faberi (SETFA), Echinochloa crus-galli (ECHCG), Amaranthus retroflexus (AMARE), and Abutilon theophasti Medik. (ABUTH, common English name “velvetleaf”). Of these, Alopecurus myosuroides (ALOMY), Setaria faberi (SETFA), and Echinochloa crus-galli (ECHCG) are grassy monocotyledonous weeds.

[2] = tested on: Amaranthus retroflexus (AMARE); test: as above; details: 312 h, 13 days after application, read-out: Post-Emergence Herbicidal Activity (% Phytotoxicity) AMARE
Method: as §1, §2

[3] = tested on: Setaria faberi (SETFA); test: as above; details: 312 h, 13 days after application, read-out: Post-Emergence Herbicidal Activity (% Phytotoxicity) SET FA
Method: as §1, §2

[4] = tested on: Avena fatua (AVEFA); test: Test 1A glasshouse assay, pre-emergence herbicidal activity; details: 312 h, 13 days after application, read-out: Pre-Emergence Herbicidal Activity (% Phytotoxicity) AVEFA
Method: as §1
(§3) Lolium perenne (LOLPE), Triticum aestivum (TRZAW, winter wheat), Alopecurus myosuroides (ALOMY), Echinochloa crus-galli (ECHCG), and Avena fatua (AVEFA). All these are grassy monocotyledonous weeds and/or (for wheat) grassy crops.

[5] = tested on: Lolium perenne (LOLPE); test: as above; details: 312 h, 13 days after application, read-out: Pre-Emergence Herbicidal Activity (% Phytotoxicity) LOLPE
Method: as §1, §3

[6] = tested on: Triticum aestivum (TRZAW, winter wheat); test: as above; details: 312 h, 13 days after application, read-out: Pre-Emergence Herbicidal Activity (% Phytotoxicity) TRZAW
Method: as §1, §3

[7] = tested on: Avena fatua (AVEFA); test: Test 1A glasshouse assay, post-emergence herbicidal activity; details: 312 h, 13 days after application, read-out: Post-Emergence Herbicidal Activity (% Phytotoxicity) AVEFA
Method: as §1
(§4) Lolium perenne (LOLPE), Triticum aestivum (TRZAW, winter wheat, variety ‘Hereward’), Alopecurus myosuroides (ALOMY), Echinochloa crus-galli (ECHCG), and Avena fatua (AVEFA). All these are grassy monocotyledonous weeds and/or (for wheat) grassy crops.

[8] = tested on: Lolium perenne (LOLPE); test: as above; details: 312 h, 13 days after application, read-out: Post-Emergence Herbicidal Activity (% Phytotoxicity) LOLPE
Method: as §1, §4

[9] = tested on: Triticum aestivum (TRZAW, winter wheat, variety ‘Hereward’); test: as above; details: 312 h, 13 days after application, read-out: Post-Emergence Herbicidal Activity (% Phytotoxicity) TRZAW
Method: as §1, §4

[10] = tested on: Winter Wheat (variety ‘Hereward’); test: Test 1B glasshouse assay, post-emergence phytotoxicity on winter wheat; details: Triticum aestivum, 312 h, 13 days after application, read-out: Post-Emergence Herbicidal Activity (% Phytotoxicity) Winter Wheat (variety ‘Hereward’)
Method: Seeds of the Winter Wheat variety ‘Hereward’ were sown in standard soil (usually sandy soil) in pots. After 8 days cultivation under controlled conditions in a glasshouse (at 24/16° C., day/night; 14 hours light; 65% humidity), which is post-emergence, the plants were sprayed with an aqueous spray solution derived from the formulation of the technical active ingredient (compound) in acetone/water (50:50) solution containing 0.5% Tween 20 (polyoxyethylene sorbitan monolaurate, CAS RN 9005-64-5). The test plants were then grown on in a glasshouse under controlled conditions (at 24/16° C., day/night; 14 hours light; 65% humidity) and watered twice daily. 13 days after application of the test compounds, the test was evaluated visually for percentage phytotoxicity to each plant (where 100%=total damage to plant; 0%=no damage to plant).

[11] = tested on: Cloquintocet-mexyl seed-treated Winter Wheat (variety ‘Hereward’); test: Test 1B glasshouse assay, post-emergence phytotoxicity on winter wheat whose seed has been treated with cloquintocet-mexyl; details: Triticum aestivum, 312 h, seed treated with cloquintocet-mexyl 0.5 g/kg dry seed, 13 days after application, read-out: Post-Emergence Herbicidal Activity (% Phytotoxicity) Cloquintocet-mexyl seed-treated Winter Wheat (variety ‘Hereward’)
Method: Seeds of the Winter Wheat variety ‘Hereward’ were seed treated with a wettable powder formulation of the cereal herbicide safener, cloquintocet-mexyl, at a rate of 0.5 grams per kilogram of dry seed, prior to the initiation of glasshouse testing. Three seeds were sown per 1.5 inch plastic pot into a standard soil (usually sandy soil) at a depth of 1 cm, prior to application of the test compounds and were watered and grown under controlled conditions in a glasshouse (at 24/16° C., day/night; 14 hours light; 65% humidity). After 8 days cultivation under these controlled conditions, the plants were sprayed post-emergence with an aqueous spray solution derived from the formulation of the technical active ingredient (compound) in acetone/water (50:50) solution containing 0.5% Tween 20 (polyoxyethylene sorbitan monolaurate, CAS RN 9005-64-5). The test plants were then grown on in a glasshouse under controlled conditions (at 24/16° C., day/night; 14 hours light; 65% humidity) and watered twice daily. 13 days after application of the test compounds, the test was evaluated visually for percentage phytotoxicity to each plant (where 100%=total damage to plant; 0%=no damage to plant).

Which results are given for `CC#Cc1cc(C)c(C2C(=O)N(C)N(C)C2=O)c(C)c1` [Compound A1]?
inhibition at 250 g/ha [1]: 10%; inhibition at 250 g/ha [2]: 0%; inhibition at 250 g/ha [3]: 40%

For `CC#Cc1cc(C)c(C2C(=O)N3CCCCCN3C2=O)c(C)c1` [Compound A23, 2-(2,6-dimethyl-4-prop-1-ynyl-phenyl)-6,7,8,9-tetrahydro-5H-pyrazolo[1,2-a]diazepine-1,3-dione], which inhibition at 250 g/ha [1] is on record?
The inhibition at 250 g/ha was 60%.

And the inhibition at 250 g/ha [2]?
Its inhibition at 250 g/ha is 30%.

What about the inhibition at 250 g/ha [3] of the same molecule?
Its inhibition at 250 g/ha is 80%.

How did the inhibition at 62.5 g/ha ([4]; 62.5 g/ha) turn out when `CC#Cc1cc(C)c(C2C(=O)C(Cc3ccccn3)N(C)C2=O)c(C)c1` (stereo not drawn) [Compound A50, 3-(2,6-dimethyl-4-prop-1-ynyl-phenyl)-1-methyl-5-(2-pyridylmethyl)pyrrolidine-2,4-dione] was run?
Its inhibition at 62.5 g/ha is 60%.

What about the inhibition at 250 g/ha ([4]; 250 g/ha) of the same molecule?
The inhibition at 250 g/ha was 70%.

What about the inhibition at 62.5 g/ha ([5]; 62.5 g/ha) of the same molecule?
Its inhibition at 62.5 g/ha is 70%.

What about the inhibition at 250 g/ha ([5]; 250 g/ha) of the same molecule?
The inhibition at 250 g/ha was 100%.

And the inhibition at 62.5 g/ha ([6]; 62.5 g/ha)?
Its inhibition at 62.5 g/ha is 70%.

And the inhibition at 250 g/ha ([6]; 250 g/ha)?
The inhibition at 250 g/ha was 90%.

What about the inhibition at 15.625 g/ha ([7]; 15.625 g/ha) of the same molecule?
Its inhibition at 15.625 g/ha is 50%.

What about the inhibition at 62.5 g/ha ([7]; 62.5 g/ha) of the same molecule?
Its inhibition at 62.5 g/ha is 70%.

And the inhibition at 250 g/ha ([7]; 250 g/ha)?
Its inhibition at 250 g/ha is 100%.

And the inhibition at 15.625 g/ha ([8]; 15.625 g/ha)?
The inhibition at 15.625 g/ha was 40%.

What about the inhibition at 62.5 g/ha ([8]; 62.5 g/ha) of the same molecule?
Its inhibition at 62.5 g/ha is 70%.

And the inhibition at 250 g/ha ([8]; 250 g/ha)?
The inhibition at 250 g/ha was 100%.

What about the inhibition at 15.625 g/ha ([9]; 15.625 g/ha) of the same molecule?
The inhibition at 15.625 g/ha was 30%.

And the inhibition at 62.5 g/ha ([9]; 62.5 g/ha)?
The inhibition at 62.5 g/ha was 70%.

What about the inhibition at 250 g/ha ([9]; 250 g/ha) of the same molecule?
Its inhibition at 250 g/ha is 80%.

And the inhibition at 15.625 g/ha ([10]; 15.625 g/ha)?
The inhibition at 15.625 g/ha was 30%.

What about the inhibition at 62.5 g/ha ([10]; 62.5 g/ha) of the same molecule?
The inhibition at 62.5 g/ha was 70%.

What about the inhibition at 250 g/ha ([10]; 250 g/ha) of the same molecule?
Its inhibition at 250 g/ha is 80%.

And the inhibition at 15.625 g/ha ([11]; 15.625 g/ha)?
Its inhibition at 15.625 g/ha is 0%.

And the inhibition at 62.5 g/ha ([11]; 62.5 g/ha)?
The inhibition at 62.5 g/ha was 40%.

What about the inhibition at 250 g/ha ([11]; 250 g/ha) of the same molecule?
Its inhibition at 250 g/ha is 60%.

`CC#Cc1cc(C)c(-c2c(OC(=O)C(C)(C)C)n(C)n(C)c2=O)c(C)c1` [Compound P1] was tested. Which inhibition at 30 g/ha [1] did it give?
The inhibition at 30 g/ha was 30%.

What about the inhibition at 250 g/ha [1] of the same molecule?
The inhibition at 250 g/ha was 70%.

And the inhibition at 30 g/ha [2]?
Its inhibition at 30 g/ha is 0%.

What about the inhibition at 250 g/ha [2] of the same molecule?
The inhibition at 250 g/ha was 20%.

What about the inhibition at 30 g/ha [3] of the same molecule?
The inhibition at 30 g/ha was 70%.

What about the inhibition at 250 g/ha [3] of the same molecule?
The inhibition at 250 g/ha was 90%.

With `CC#Cc1cc(C)c(-c2c(OC(=O)C(C)(C)C)n3n(c2=O)CCOCC3)c(C)c1` [Compound P4] as the molecule, how does the inhibition at 30 g/ha [1] read?
The inhibition at 30 g/ha was 70%.

And the inhibition at 250 g/ha [1]?
Its inhibition at 250 g/ha is 70%.

And the inhibition at 30 g/ha [2]?
The inhibition at 30 g/ha was 0%.

And the inhibition at 250 g/ha [2]?
Its inhibition at 250 g/ha is 10%.

What about the inhibition at 30 g/ha [3] of the same molecule?
Its inhibition at 30 g/ha is 70%.

And the inhibition at 250 g/ha [3]?
The inhibition at 250 g/ha was 100%.
